# According to US5935945A, “Methods of treating or preventing cardiac arrhythmia” (Merck & Co., Inc., priority 1997, dated 1999):
# What was measured:
# [1] = target: T1, hKv1.5 (Homo sapiens, UniProt P22460); assay: Voltage-clamp measurement of hKv1.5 current expressed in Chinese hamster ovary (CHO) cells; assay type: cell-based; conditions: rested state block, first pulse; 150 ms pulses to +40 mV from -80 mV; room temperature (22-24° C); read-out: Rested State IC50, CHO Cells Expressing hKv1.5
# T1 construct: expressed in transfected cells
# T1 sequence (P22460 whole entry): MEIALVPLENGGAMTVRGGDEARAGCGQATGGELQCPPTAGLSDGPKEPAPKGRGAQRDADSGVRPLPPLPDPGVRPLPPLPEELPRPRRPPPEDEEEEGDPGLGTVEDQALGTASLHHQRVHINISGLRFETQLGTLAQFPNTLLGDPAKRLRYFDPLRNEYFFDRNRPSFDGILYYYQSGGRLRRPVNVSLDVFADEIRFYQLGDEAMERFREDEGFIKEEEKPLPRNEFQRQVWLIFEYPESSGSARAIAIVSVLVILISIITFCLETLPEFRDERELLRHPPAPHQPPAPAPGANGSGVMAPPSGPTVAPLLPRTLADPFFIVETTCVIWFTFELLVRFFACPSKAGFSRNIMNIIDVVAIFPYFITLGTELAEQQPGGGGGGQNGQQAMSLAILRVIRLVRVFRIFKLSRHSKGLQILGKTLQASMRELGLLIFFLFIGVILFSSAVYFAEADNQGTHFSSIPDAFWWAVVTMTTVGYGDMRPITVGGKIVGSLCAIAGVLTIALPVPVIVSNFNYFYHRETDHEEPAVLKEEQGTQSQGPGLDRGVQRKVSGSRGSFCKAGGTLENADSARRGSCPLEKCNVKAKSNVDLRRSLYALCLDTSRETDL
# Procedure: Expression of Kv1.5 in CHO Cells
# CHOKI cells were plated at 2.7×10^4 cells/60 mm dish and incubated at 37° C., in a 5% CO2 environment for three days. Cells were then washed twice and covered with 3 ml of OptiMEM medium (Gibco). Plasmid/DOTAP solution (consisting of […] of Kv1.5 in pcDNAI/Neo and […] DOTAP transfection reagent (Boehringer Mannheim) in 1 ml of OptiMEM) was added dropwise to each plate while swirling. Plates were incubated overnight and the media then changed to 5 mls of F12 (Gibco) supplemented with 10% FBS (Sigma), 1,000 U/ml penicillin […] streptomycin (Gibco), and 2 mM glutamine (Gibco). After two more days, the cells were trypsinized and replated on 100 mm dishes in supplemented F12 media including 1 mg/ml G418 (Gibco). The medium was changed daily until nontransfected cells were killed. Cell lines were grown from individual clones and tested for expression of Kv1.5 using both the ^86 RB efflux assay and voltage clamp protocols. […] These cells were maintained in culture and on each experimental day were freshly isolated by mild trypsinization.
# The patch-clamp technique was used to record ionic currents in the whole-cell configuration. Patch pipettes were obtained using a two stage puller from square bore (1.0 mm o.d.) borosillicate capillary tubing. Pipettes were filled with the following solution (in mM/L): 110 K-Gluconate or K-Aspartate, 20 KCl, 5 MgATP, 5 EGTA, 5-10 HEPES, pH 7.2. […] Following seal formation, the membrane was ruptured by gentle suction to establish the whole-cell configuration, and negative pressure was maintained on the pipette using a 1 ml gas-tight syringe attached via air tight tubing to the suction port of the microelectrode holder.
# Kv1.5 currents were elicited by 150 ms depolarizing test pulses to +40 mV from a holding potential of -80 mV. The effects of test agents were assessed at steady-state. Data was analyzed as % block from control current amplitude. […] All experiments were performed at room temperature (22-24° C.). […]
# [2] = target: T2, IKur (ultra-rapidly-activating delayed rectifier K^+ current) (Homo sapiens, UniProt P22460); assay: Voltage-clamp measurement of IKur in isolated human atrial myocytes; assay type: cell-based; conditions: rested state block, first pulse; 150 ms pulses to +40 mV from -50 mV; room temperature (22-24° C); read-out: Rested State IC50, IKur in Human Atrium
# T2 construct: isolated human atrial myocytes; from tissue; host or cells: isolated myocytes from human right atrial appendage
# T2 sequence (P22460 whole entry): as above
# Procedure: J. Physiol. […] All tissues were collected in accordance with Temple University School of Medicine Institutional guidelines. […] Tissue samples were quickly immersed in cold (0-4° C.) cardioplegia solution containing (in mM/L): 50 KH2 PO4, 8 MgSO4, 10 NaHCO3, 5 adenosine, 25 taurine, 140 glucose, and 100 mannitol, pH 7.4 and bubbled with 100% O2. […] The tissue was gently agitated by continuous bubbling with 100% O2 for 5 min. […] The supernatant was removed after 40 min and discarded. The chunks were then incubated in a solution of the same ionic composition but supplemented with only collagenase and […] CaCl2. Microscopic examination of the medium was performed every 10-20 min to determine the number and quality of isolated cells. […] The supernatant was collected in a 50 ml centrifuge tube. […] Cells were used within 2-24 hr after isolation.
# A small aliquot of the solution containing the isolated human atrial myocytes was placed in a 1-ml chamber mounted on the stage of an inverted microscope. Five minutes were allowed for cell adhesion to the bottom of the chamber. To record IKur, human atrial myocytes were superfused with a solution of the same ionic composition as that used for Kv1.5. An alternative external solution was sometimes used in which NaCl was replaced with NMDG (formal name: N-methyl-d-glucamine) to inhibit INa.
# The amplitude of IKur was measured as the amplitude of the time-dependentcurrent at the end of the test pulse, relative to the holding current level. […] All experiments were performed at room temperature (22-24° C.).
SMILES,IC50 [1],IC50 [2]
"Cc1cc(C)c(CP(=O)(c2ccccc2)c2ccccc2)c(-c2ccc(F)c(C)c2)c1 [Compound C, 2-(Diphenylphosphinylmethyl)-4'-fluoro-3,5,3'-trimethyl-biphenyl]",278 nM,780 nM
COc1ccc(-n2nc(Sc3ccc(C)cc3)c(C)c(C#N)c2=O)cc1 [Compound B],120 nM,80 nM
"COc1ccc(-n2nc(Sc3ccc(Cl)cc3)c(C)c(C#N)c2=O)cc1 [Compound A, 6-(4-Chlorophenylthio)-2-(4-methoxyphenyl)-5-methyl-3-oxo-2,3-dihydropyridazine-4-carbonitrile]",230 nM,230 nM
